Laboratory results: PMC10041525, “New Dual Inhibitors of Bacterial Topoisomerases with Broad-Spectrum Antibacterial Activity and In Vivo Efficacy against Vancomycin-Intermediate Staphylococcus aureus” (Journal of Medicinal Chemistry, 2023)
In brackets after ≈: the same amount, converted by molar mass. Several values for one entry are separate records, joined by “and”; a condition that tells them apart may be missing. Identical values can stand only once. Like-named read-outs stand apart in the source and are kept apart here.

Legend:
[1] = tested on: 100 A. baumannii strains (50 MDR, 50 non-MDR); assay: MIC broth microdilution at IHMA Europe, panel of 100 strains; assay type: cell-based; details: for MIC / MIC50 / MIC90: Acinetobacter baumannii
[2] = tested on: 3 sensitive and 7 MDR A. baumannii clinical isolates; assay: MIC, Hungarian clinical isolates and controls (384-well); assay type: cell-based
[3] = tested on: N. gonorrhoeae ATCC 49226; assay: IHMA QC MIC; assay type: cell-based; details: Neisseria gonorrhoeae, ATCC49226
Source text: (§1) Supplement jm2c01905_si_004.xlsx, sheet "QC" | column: MIC [µg/mL]

[4] = tested on: H. influenzae ATCC 49766; assay: IHMA QC MIC; assay type: cell-based
Source text: as §1

[5] = tested on: S. pneumoniae ATCC 49619; assay: IHMA QC MIC; assay type: cell-based
Source text: as §1

[6] = tested on: H. influenzae ATCC 49247; assay: IHMA QC MIC; assay type: cell-based; details: Haemophilus influenzae
Source text: as §1

[7] = tested on: E. faecalis ATCC 29212; assay: IHMA QC MIC; assay type: cell-based
Source text: as §1

[8] = tested on: E. coli ATCC 25922; assay: IHMA QC MIC; assay type: cell-based
[9] = in vitro; assay type: in vitro ADME, mouse; details: male

Q: What does the source list for `Cc1[nH]c(C(=O)Nc2nc3c(N4CCOCC4)cc(C(=O)O)cc3s2)c(Cl)c1Cl` [7a, 2-(3,4-Dichloro-5-methyl-1H-pyrrole-2-carboxamido)-4-morpholinobenzo[d]thiazole-6-carboxylic Acid]?
A: MIC ([1]; A. baumannii IHMA 1769910, Israel 2018, Non-MDR): 16 µg/mL (≈ 35.1 µM); MIC ([1]; A. baumannii IHMA 1795669, Tunisia 2018, Non-MDR): 1 µg/mL (≈ 2.2 µM); MIC ([1]; A. baumannii IHMA 1814276, Lebanon 2018, MDR): 8 µg/mL (≈ 17.6 µM); MIC ([1]; A. baumannii IHMA 1815198, Kuwait 2018, MDR): 8 µg/mL (≈ 17.6 µM); MIC ([1]; A. baumannii IHMA 1821468, South Africa 2018, Non-MDR): 8 µg/mL (≈ 17.6 µM); MIC ([1]; A. baumannii IHMA 1829500, Georgia 2018, Non-MDR): 8 µg/mL (≈ 17.6 µM); MIC ([1]; A. baumannii IHMA 1830924, United Kingdom 2018, Non-MDR): 32 µg/mL (≈ 70.3 µM); MIC ([1]; A. baumannii IHMA 1849819, Kuwait 2018, MDR): 16 µg/mL (≈ 35.1 µM); MIC ([1]; A. baumannii IHMA 1849829, Kuwait 2018, Non-MDR): 8 µg/mL (≈ 17.6 µM); MIC ([1]; A. baumannii IHMA 1857118, Slovenia 2018, Non-MDR): 16 µg/mL (≈ 35.1 µM); MIC ([1]; A. baumannii IHMA 1863631, France 2018, Non-MDR): 8 µg/mL (≈ 17.6 µM); MIC ([1]; A. baumannii IHMA 1870054, United States 2018, Non-MDR): 8 µg/mL (≈ 17.6 µM); MIC ([1]; A. baumannii IHMA 1884428, Italy 2018, Non-MDR): 8 µg/mL (≈ 17.6 µM); MIC ([1]; A. baumannii IHMA 1900538, Turkey 2018, Non-MDR): 8 µg/mL (≈ 17.6 µM); MIC ([1]; A. baumannii IHMA 1957343, Portugal 2019, Non-MDR): 8 µg/mL (≈ 17.6 µM); MIC ([1]; A. baumannii IHMA 1963732, Turkey 2019, MDR): 8 µg/mL (≈ 17.6 µM); MIC ([1]; A. baumannii IHMA 1977077, Kuwait 2019, Non-MDR): 8 µg/mL (≈ 17.6 µM); MIC ([1]; A. baumannii IHMA 1983151, Greece 2019, MDR): 8 µg/mL (≈ 17.6 µM); MIC ([1]; A. baumannii IHMA 1984665, Lithuania 2019, MDR): 8 µg/mL (≈ 17.6 µM); MIC ([1]; A. baumannii IHMA 1986678, Turkey 2019, Non-MDR): 8 µg/mL (≈ 17.6 µM); MIC ([1]; A. baumannii IHMA 1986738, Turkey 2019, MDR): 8 µg/mL (≈ 17.6 µM); MIC ([1]; A. baumannii IHMA 1995161, Czech Republic 2019, Non-MDR): 8 µg/mL (≈ 17.6 µM); MIC ([1]; A. baumannii IHMA 1997936, Morocco 2019, Non-MDR): 8 µg/mL (≈ 17.6 µM); MIC ([1]; A. baumannii IHMA 2003279, Turkey 2019, MDR): 8 µg/mL (≈ 17.6 µM); MIC ([1]; A. baumannii IHMA 2014931, South Africa 2019, Non-MDR): 16 µg/mL (≈ 35.1 µM); MIC ([1]; A. baumannii IHMA 2019315, Romania 2019, Non-MDR): 8 µg/mL (≈ 17.6 µM); MIC ([1]; A. baumannii IHMA 2020360, Croatia 2019, MDR): 8 µg/mL (≈ 17.6 µM); MIC ([1]; A. baumannii IHMA 2031524, Greece 2019, MDR): 8 µg/mL (≈ 17.6 µM); MIC ([1]; A. baumannii IHMA 2034657, Tunisia 2019, Non-MDR): 16 µg/mL (≈ 35.1 µM); MIC ([1]; A. baumannii IHMA 2035089, Serbia 2019, MDR): 8 µg/mL (≈ 17.6 µM); MIC ([1]; A. baumannii IHMA 2035134, Serbia 2019, Non-MDR): 8 µg/mL (≈ 17.6 µM); MIC ([1]; A. baumannii IHMA 2038976, Hungary 2019, MDR): 8 µg/mL (≈ 17.6 µM); MIC ([1]; A. baumannii IHMA 2058329, Slovenia 2019, Non-MDR): 8 µg/mL (≈ 17.6 µM); MIC ([1]; A. baumannii IHMA 2099294, United Kingdom 2019, Non-MDR): 8 µg/mL (≈ 17.6 µM); MIC ([1]; A. baumannii IHMA 2129256, Qatar 2019, Non-MDR): 8 µg/mL (≈ 17.6 µM); MIC ([1]; A. baumannii IHMA 2154584, Israel 2020, MDR): 8 µg/mL (≈ 17.6 µM); MIC ([1]; A. baumannii IHMA 2156634, Turkey 2020, MDR): 8 µg/mL (≈ 17.6 µM); MIC ([1]; A. baumannii IHMA 2156709, Turkey 2020, MDR): 8 µg/mL (≈ 17.6 µM); MIC ([1]; A. baumannii IHMA 2157614, Australia 2020, Non-MDR): 16 µg/mL (≈ 35.1 µM); MIC ([1]; A. baumannii IHMA 2177232, Lithuania 2020, MDR): 8 µg/mL (≈ 17.6 µM); MIC ([1]; A. baumannii IHMA 2177489, Lithuania 2020, MDR): 8 µg/mL (≈ 17.6 µM); MIC ([1]; A. baumannii IHMA 2178574, Ukraine 2020, Non-MDR): 16 µg/mL (≈ 35.1 µM); MIC ([1]; A. baumannii IHMA 2180134, Malaysia 2020, Non-MDR): 8 µg/mL (≈ 17.6 µM); MIC ([1]; A. baumannii IHMA 2181370, Morocco 2020, MDR): 8 µg/mL (≈ 17.6 µM); MIC ([1]; A. baumannii IHMA 2183729, Argentina 2020, MDR): 16 µg/mL (≈ 35.1 µM); MIC ([1]; A. baumannii IHMA 2183849, Argentina 2020, Non-MDR): 8 µg/mL (≈ 17.6 µM); MIC ([1]; A. baumannii IHMA 2193375, Venezuela 2020, MDR): 8 µg/mL (≈ 17.6 µM); MIC ([1]; A. baumannii IHMA 2193607, Venezuela 2020, MDR): 8 µg/mL (≈ 17.6 µM); MIC ([1]; A. baumannii IHMA 2195460, Italy 2020, MDR): 8 µg/mL (≈ 17.6 µM); MIC ([1]; A. baumannii IHMA 2196914, South Africa 2020, MDR): 8 µg/mL (≈ 17.6 µM); MIC ([1]; A. baumannii IHMA 2196959, South Africa 2020, MDR): 8 µg/mL (≈ 17.6 µM); MIC ([1]; A. baumannii IHMA 2203763, Spain 2020, MDR): 8 µg/mL (≈ 17.6 µM); MIC ([1]; A. baumannii IHMA 2212575, Hungary 2020, Non-MDR): 16 µg/mL (≈ 35.1 µM); MIC ([1]; A. baumannii IHMA 2215307, Hong Kong 2020, Non-MDR): 8 µg/mL (≈ 17.6 µM); MIC ([1]; A. baumannii IHMA 2216586, Taiwan 2020, MDR): 8 µg/mL (≈ 17.6 µM); MIC ([1]; A. baumannii IHMA 2224017, Panama 2020, MDR): 16 µg/mL (≈ 35.1 µM); MIC ([1]; A. baumannii IHMA 2224303, Panama 2020, Non-MDR): 32 µg/mL (≈ 70.3 µM); MIC ([1]; A. baumannii IHMA 2233099, Guatemala 2020, MDR): 16 µg/mL (≈ 35.1 µM); MIC ([1]; A. baumannii IHMA 2233430, Kazakhstan 2020, MDR): 8 µg/mL (≈ 17.6 µM); MIC ([1]; A. baumannii IHMA 2233548, Kazakhstan 2020, Non-MDR): 8 µg/mL (≈ 17.6 µM); MIC ([1]; A. baumannii IHMA 2238964, Thailand 2020, MDR): 8 µg/mL (≈ 17.6 µM); MIC ([1]; A. baumannii IHMA 2239052, Thailand 2020, Non-MDR): 8 µg/mL (≈ 17.6 µM); MIC ([1]; A. baumannii IHMA 2261047, Belgium 2020, MDR): 16 µg/mL (≈ 35.1 µM); MIC ([1]; A. baumannii IHMA 2261633, Canada 2020, Non-MDR): 16 µg/mL (≈ 35.1 µM); MIC ([1]; A. baumannii IHMA 2274234, South Africa 2020, MDR): 8 µg/mL (≈ 17.6 µM); MIC ([1]; A. baumannii IHMA 2274364, South Africa 2020, MDR): 8 µg/mL (≈ 17.6 µM); MIC ([1]; A. baumannii IHMA 2275237, Chile 2020, Non-MDR): 8 µg/mL (≈ 17.6 µM); MIC ([1]; A. baumannii IHMA 2316205, United States 2020, MDR): 8 µg/mL (≈ 17.6 µM); MIC50 ([1]; MDR n = 50): 8 µg/mL (≈ 17.6 µM); MIC90 ([1]; MDR n = 50): 8 µg/mL (≈ 17.6 µM); MIC50 ([1]; all isolates n = 100): 8 µg/mL (≈ 17.6 µM); MIC90 ([1]; all isolates n = 100): 16 µg/mL (≈ 35.1 µM); MIC50 ([1]; non-MDR n = 50): 8 µg/mL (≈ 17.6 µM); MIC90 ([1]; non-MDR n = 50): 16 µg/mL (≈ 35.1 µM); MIC ([1]; read-out: MAX (maximum MIC), non-MDR n = 50): 32 µg/mL (≈ 70.3 µM); MIC ([1]; read-out: MAX (maximum MIC; all strains inhibited), MDR n = 50): 16 µg/mL (≈ 35.1 µM); MIC ([1]; read-out: MAX (maximum MIC; all strains inhibited), all isolates n = 100): 32 µg/mL (≈ 70.3 µM); MIC ([1]; read-out: MIN (minimum MIC), all isolates n = 100): 1 µg/mL (≈ 2.2 µM); MIC ([1]; read-out: MIN (minimum MIC), non-MDR n = 50): 1 µg/mL (≈ 2.2 µM); MAX (maximum MIC; all strains inhibited) ([1]; MDR n = 50): 16 µg/mL; Cumulative % at MIC [2]: 80% and 100%; MIC [3]: ≤ 0.03 µg/mL; MIC ([4]; Haemophilus influenzae, ATCC49766): 0.25 µg/mL (≈ 0.549 µM); MIC ([4]; QC strain H. influenzae ATCC 49766, test date 2021-11-26): 0.25 µg/mL (≈ 0.549 µM); MIC ([5]; QC strain S. pneumoniae ATCC 49619, test date 2021-11-26): 0.25 µg/mL (≈ 0.549 µM); MIC ([5]; Streptococcus pneumoniae, ATCC49619): 0.25 µg/mL (≈ 0.549 µM); MIC ([6]; ATCC49247, QC strain H. influenzae ATCC 49247, test date 2021-11-11): 0.25 µg/mL (≈ 0.549 µM); MIC ([6]; ATCC49247, QC strain H. influenzae ATCC 49247, test date 2021-11-26): 0.06 µg/mL (≈ 0.132 µM); MIC ([7]; Enterococcus faecalis, ATCC29212): 0.06 µg/mL (≈ 0.132 µM); MIC ([7]; QC strain E. faecalis ATCC 29212, test date 2021-11-26): 0.06 µg/mL (≈ 0.132 µM); MIC ([8]; Escherichia coli, ATCC25922): 8 µg/mL (≈ 17.6 µM); MIC ([8]; Escherichia coli, ATCC25922, read-out: MIC (QC, repeated tests)): 8 µg/mL (≈ 17.6 µM); MIC ([8]; QC strain E. coli ATCC 25922, test date 2021-11-26): 8 µg/mL (≈ 17.6 µM); recovery at 4 h, 5 μM ([9]; CD-1, mouse, plasma protein binding assay): 81.5%; fraction unbound at 4 h, 5 μM ([9]; CD-1, mouse plasma, 5 µM, 4 h, read-out: fu, fraction unbound): 0.018
